System: HCV
Assay: Cell-based HCV infection NS3 protease FRET assay in DMSO-Huh7 cells; note: test concentration or dose not given here
Design: species or system hepatitis C virus (HCV)
Settings: not given

SMILES | Ave % inhibition
CC1(C)O[C@H]2[C@@H](CN=[N+]=[N-])NC[C@H]2O1 [Compound 671, (3aS,4R,6aR)-4-(azidomethyl)-2,2-dimethyltetrahydro-3aH-[1,3]dioxolo[4,5-c]pyrrole] | ++ (++: 20-39%)
CCN1C[C@H](O)[C@@H](O)[C@H](O)[C@H]1CO [Compound 756, (2R,3R,4R,5S)-1-ethyl-2-(hydroxymethyl)piperidine-3,4,5-triol] | + (+: ≦19%)

Same assay, conditions: DMSO-Huh7 cells infected with HCV at 0.05 ffu/cell; HCV NS3 protein levels by FRET, day 6 p.i.

SMILES | Ave % inhibition
CCCCCCCCCN1C[C@@H]2OC(C)(C)O[C@@H]2[C@@H]1CNC(C)=O [Compound 630, N-(((3aR,4S,6aS)-2,2-dimethyl-5-nonyltetrahydro-3aH-[1,3]dioxolo[4,5-c]pyrrol-4-yl)methyl)acetamide] | ++ (++: 20-39%)
CC1(C)O[C@H]2[C@H](CN(Cc3ccc(-c4ccccc4)cc3)[C@H]2CNC(=O)C(F)(F)F)O1 [Compound 632, N-(((3aR,4S,6aS)-5-(biphenyl-4-ylmethyl)-2,2-dimethyltetrahydro-3aH-[1,3]dioxolo[4,5-c]pyrrol-4-yl)methyl)-2,2,2-trifluoroacetamide] | ++ (++: 20-39%)
O=C(NC[C@H]1[C@@H](O)[C@@H](O)CN1CCN1CCOCC1)c1ccccc1 [Compound 633, N-(((2S,3R,4S)-3,4-dihydroxy-1-(2-morpholinoethyl)pyrrolidin-2-yl)methyl)benzamide] | +++ (+++: 40-59%)
O=C(NC[C@@H]1[C@@H](O)[C@@H](O)CN1Cc1ccc(-c2ccccc2)cc1)c1ccccc1 [Compound 649, N-(((2R,3R,4S)-1-(biphenyl-4-ylmethyl)-3,4-dihydroxypyrrolidin-2-yl)methyl)benzamide] | +++ (+++: 40-59%)
CC1(C)O[C@H]2[C@H](CN(Cc3ccccc3)[C@H]2CNC(=O)c2ccc(-c3ccccc3)cc2)O1 [Compound 652, N-(((3aR,4S,6aS)-5-benzyl-2,2-dimethyltetrahydro-3aH-[1,3]dioxolo[4,5-c]pyrrol-4-yl)methyl)biphenyl-4-carboxamide] | +++++ (+++++: ≧80%)
O=C(NC[C@H]1[C@@H](O)[C@@H](O)CN1CCCCCCCCCO)c1ccc(-c2ccccc2)cc1 [Compound 660, N-(((2S,3R,4S)-3,4-dihydroxy-1-(9-hydroxynonyl)pyrrolidin-2-yl)methyl)biphenyl-4-carboxamide] | +++ (+++: 40-59%)
CN(C)CCN1C[C@H](O)[C@H](O)[C@@H]1CNC(=O)c1ccccc1 [Compound 667, N-(((2S,3R,4S)-1-(2-(dimethylamino)ethyl)-3,4-dihydroxypyrrolidin-2-yl)methyl)benzamide] | ++ (++: 20-39%)
CCCC(=O)NC[C@@H]1[C@@H](O)[C@@H](O)CN1Cc1ccccc1 [Compound 669, N-(((2R,3R,4S)-1-benzyl-3,4-dihydroxypyrrolidin-2-yl)methyl)butyramide] | ++ (++: 20-39%)
O=C(NC[C@@H]1NC[C@H](O)[C@@H]1O)c1ccc(-c2ccccc2)cc1 [Compound 670, N-(((2S,3R,4S)-3,4-dihydroxypyrrolidin-2-yl)methyl)biphenyl-4-carboxamide] | +++++ (+++++: ≧80%)
O=C(NC[C@@H]1[C@@H](O)[C@@H](O)CN1Cc1ccccc1)c1ccc(-c2ccccc2)cc1 [Compound 673, N-(((2R,3R,4S)-1-benzyl-3,4-dihydroxypyrrolidin-2-yl)methyl)biphenyl-4-carboxamide] | ++ (++: 20-39%)
O=C(NC[C@@H]1NC[C@H](O)[C@@H]1O)C(F)(F)F [Compound 674, N-(((2S,3R,4S)-3,4-dihydroxypyrrolidin-2-yl)methyl)-2,2,2-trifluoroacetamide] | ++ (++: 20-39%)
CC1(C)O[C@H]2[C@H](CN(CCN3CCOCC3)[C@H]2CNC(=O)C(F)(F)F)O1 [Compound 675, N-(((3aR,4S,6aS)-2,2-dimethyl-5-(2-morpholinoethyl)tetrahydro-3aH-[1,3]dioxolo[4,5-c]pyrrol-4-yl)methyl)-2,2,2-trifluoroacetamid] | ++ (++: 20-39%)
CCCCN1C[C@@H]2OC(C)(C)O[C@@H]2[C@@H]1CNC(=O)C(F)(F)F [Compound 676, N-(((3aR,4S,6aS)-5-butyl-2,2-dimethyltetrahydro-3aH-[1,3]dioxolo[4,5-c]pyrrol-4-yl)methyl)-2,2,2-trifluoroacetamide] | ++ (++: 20-39%)
CC1(C)O[C@H]2[C@H](CN(CCN3CCCCC3)[C@H]2CNC(=O)C(F)(F)F)O1 [Compound 677, N-(((3aR,4S,6aS)-2,2-dimethyl-5-(2-(piperidin-1-yl)ethyl)tetrahydro-3aH-[1,3]dioxolo[4,5-c]pyrrol-4-yl)methyl)-2,2,2-trifluoroacetamide] | ++ (++: 20-39%)
CN(C)CCN1C[C@@H]2OC(C)(C)O[C@@H]2[C@@H]1CNC(=O)C(F)(F)F [Compound 678, N-(((3aR,4S,6aS)-5-(2-(dimethylamino)ethyl)-2,2-dimethyltetrahydro-3aH-[1,3]dioxolo[4,5-c]pyrrol-4-yl)methyl)-2,2,2-trifluoroacetamide] | ++ (++: 20-39%)
NC[C@H]1[C@@H](O)[C@@H](O)CN1Cc1ccc(-c2ccccc2)cc1 [Compound 686, (2S,3R,4S)-2-(aminomethyl)-1-(biphenyl-4-ylmethyl)pyrrolidine-3,4-diol] | +++ (+++: 40-59%)
COCCOCCN1C[C@H](O)[C@H](O)[C@@H]1CNC(=O)c1ccc(-c2ccccc2)cc1 [Compound 688, N-(((2S,3R,4S)-3,4-dihydroxy-1-(2-(2-methoxyethoxy)ethyl)pyrrolidin-2-yl)methyl)biphenyl-4-carboxamide] | +++ (+++: 40-59%)
CCCCN1C[C@H](O)[C@H](O)[C@H]1CNC(=O)CCC [Compound 689, N-(((2R,3R,4S)-1-butyl-3,4-dihydroxypyrrolidin-2-yl)methyl)butyramide] | + (+: ≦19%)

SMILES | Ave % inhibition
O[C@H]([C@H]1[C@@H](O)[C@H](O)CN1Cc1ccccc1)[C@H](O)CNCc1ccccc1 [Compound 698, (2S,3R,4R)-1-benzyl-2-((1R,2R)-3-(benzylamino)-1,2-dihydroxypropyl)pyrrolidine-3,4-diol] | ++ (++: 20-39%)
O[C@@H]1[C@H]([C@@H](O)CNCc2ccccc2)N(Cc2ccccc2)C[C@@H]1O [Compound 700, (2S,3R,4S)-1-benzyl-2-((S)-2-(benzylamino)-1-hydroxyethyl)pyrrolidine-3,4-diol] | ++ (++: 20-39%)
O=C(NC[C@H]1[C@@H](O)[C@@H](O)CN1CCN1CCOCC1)c1ccc(-c2ccccc2)cc1 [Compound 702, N-(((2S,3R,4S)-3,4-dihydroxy-1-(2-morpholinoethyl)pyrrolidin-2-yl)methyl)biphenyl-4-carboxamide] | ++++ (++++: 60-79%)
OC[C@@H](O)[C@H](O)[C@H]1[C@@H](O)[C@H](O)CN1Cc1ccccc1 [Compound 703, (1R,2R)-1-((2R,3R,4R)-1-benzyl-3,4-dihydroxypyrrolidin-2-yl)propane-1,2,3-triol] | ++ (++: 20-39%)
CC1(C)O[C@H]([C@H]2[C@@H](O)[C@H](O)CN2Cc2ccccc2)[C@@H](CNCc2ccccc2)O1 [Compound 704, (2R,3R,4R)-1-benzyl-2-((4R,5R)-5-((benzylamino)methyl)-2,2-dimethyl-1,3-dioxolan-4-yl)pyrrolidine-3,4-diol] | ++++ (++++: 60-79%)
COC(=O)[C@H]1C[C@H](O)CN1C(=O)OC(C)(C)C [Compound 713, (2R,4S)-1-tert-butyl 2-methyl 4-hydroxypyrrolidine-1,2-dicarboxylate] | ++ (++: 20-39%)
[N-]=[N+]=N[C@@H]1C[C@H](CO)N(CCCO)C1 [Compound 717, ′3-((2R,4R)-4-azido-2-(hydroxymethyl)pyrrolidin-1-yl)propan-1-ol] | +++++ (+++++: ≧80%)
[N-]=[N+]=N[C@@H]1CN(CCO)[C@H](CO)[C@H]1O [Compound 721, (2R,3R,4R)-4-azido-1-(2-hydroxyethyl)-2-(hydroxymethyl)pyrrolidin-3-ol] | ++ (++: 20-39%)
CCCCCCCCCN1C[C@@H](O)[C@@H](O)[C@H](NC(C)=O)C1 [Compound 731, N-((3R,4S,5R)-4,5-dihydroxy-1-nonylpiperidin-3-yl)acetamide] | ++ (++: 20-39%)
CCCCCCCCCN1C[C@@H](O)[C@H](O)[C@H](O)[C@@H](O)C1 [Compound 736, (3R,4S,5R,6S)-1-nonylazepane-3,4,5,6-tetraol] | +++ (+++: 40-59%)
OC1CN(Cc2ccc(-c3ccccc3)cc2)C1 [Compound 748, 1-(biphenyl-4-ylmethyl)azetidin-3-ol] | ++++ (++++: 60-79%)
O[C@H]1[C@H](O)[C@H](O)CN(Cc2ccc(-c3ccccc3)cc2)C[C@H]1O [Compound 762, (3R,4R,5R,6R)-1-(biphenyl-4-ylmethyl)azepane-3,4,5,6-tetraol] | +++ (+++: 40-59%)
[N-]=[N+]=N[C@@H]1CN[C@@H](CO)C1 [Compound 767, ((2R,4S)-4-azidopyrrolidin-2-yl)methanol] | ++++ (++++: 60-79%)
CCCCCCCCCN1C[C@H](O)[C@@H](O)[C@H](NC(C)=O)C1 [Compound 774, N-((3R,4S,5S)-4,5-dihydroxy-1-nonylpiperidin-3-yl)acetamide] | + (+: ≦19%)
CCCCCCCCCN1C[C@H](O)C(NC(C)=O)[C@@H](O)C1 [Compound 777, N-((3S,5S)-3,5-dihydroxy-1-nonylpiperidin-4-yl)acetamide] | +++ (+++: 40-59%)
CCCCCCCCCN1C[C@@H](O)[C@H](O)[C@@H](NC(C)=O)C1 [Compound 780, N-((3S,4R,5R)-4,5-dihydroxy-1-nonylpiperidin-3-yl)acetamide] | ++ (++: 20-39%)
CCCCCCCCCN1C[C@@H](O)C(NC(C)=O)[C@H](O)C1 [Compound 783, N-((3R,5R)-3,5-dihydroxy-1-nonylpiperidin-4-yl)acetamide] | +++ (+++: 40-59%)
CCCCCCCCCN1C[C@@H](O)[C@H](NC(C)=O)[C@@H](O)C1 [Compound 789, N-((3S,4r,5R)-3,5-dihydroxy-1-nonylpiperidin-4-yl)acetamide] | +++ (+++: 40-59%)
